Laboratory results reported in article PMC8495455, “Discovery of a transdermally deliverable pentapeptide for activating AdipoR1 to promote hair growth” (EMBO Molecular Medicine, 2021).

What was measured:
Adipor1−/− mice = assay: Mouse hair cycle modulation, hair cycle score, Adipor1−/− mice; type: in vivo; conditions: n = 5 mice/group, 35 days
From the text: To test whether the effect of P5 is mediated through AdipoR1 in vivo, we used Adipor1 ^−/− mice (Yamauchi et al, [2007]; Okada‐Iwabu et al, [2013]). […] Consistently, the anagen induction effects of P5 was abolished in the Adipor1 ^−/− mice (Fig 4I and J), in contrast to in WT mouse (Appendix Fig S2). […] Taken together, topical P5 treatment can accelerate hair growth through AdipoR1 in vivo.
For the hair cycle modulation experiment, Adipoq ^−/− (stock #008195; JAX) (Ma et al, [2002]), Adipor1 ^−/− (Yamauchi et al, [2007]; Okada‐Iwabu et al, [2013]), or C57BL/6 (KOATECH) female mice was used (Müller‐Röver et al, [2001]). They were housed (up to four animals per cage; 23 ± 2°C, 8:00–20:00, 12 h/12 h light/dark cycle). Mice were fed a standard chow diet and provided food and water ad libitum. Mice were randomly allocated and shaved dorsally at 7.5 weeks of age. […] The mouse hair growth score (a value from 0 to 100 based on the skin pigmentation and hair shaft density) was monitored and documented at designated days with the experimenters being blind to the conditions, following a previous study (Chai et al, [2019]). […] On day 35, we obtained dorsal cutaneous tissue for histological analysis: anagen induction scores (calculated using an assigned arbitrary score; telogen = 1, anagen I–VI = 2–7) (Müller‐Röver et al, [2001]). […]

[1] = test system: AMPK phosphorylation through AdipoR1 in DP cells; assay: Western blot p-AMPK in AdipoR1 siRNA-transfected DP cells; type: cell-based, human
From the text: Following the confirmation of the molecular interaction between AdipoR1 and P5, we evaluated the activation of the intracellular signaling pathway by P5. We investigated whether APN treatment on ORS and DP cells could activate AMPK or ERK signaling pathways, which are previously known to be downstream effectors of AdipoR1 (Mao et al, [2006]; Deepa & Dong, [2009]; Shibata et al, [2012]). […] Next, for determination of whether both P5 and APN mediates the phosphorylation of AMPK through AdipoR1 in ORS and DP cells, the cells were transfected with AdipoR1 siRNA (Appendix Fig S1). […] Collectively, P5 activates AMPK signaling pathway through AdipoR1 in ORS and DP cells in vitro.
All transfections were performed using Lipofectamine 2000 following the manufacturer’s instructions (#11668019; Thermo Fisher). Human DP and ORS cells were cultured without antibiotics until reaching 50% confluency. AdipoR1 or scrambled siRNA (Bioneer) was used. The culture medium was changed 6 h after transfection, and the cells were incubated for another 24 h before subsequent analyses.
Human ORS and DP cells or skin tissue were lysed (RIPA lysis buffer; #20‐188; Merck Millipore). […] Antibody‐antigen complexes detected by enhanced chemiluminescent substrate (Thermo Fisher) were captured and quantified by Amersham imager 680 systems (GE Healthcare).

FGF7 protein = assay: Growth factor protein quantitation in DP cell medium, FGF7; type: cell-based, human; conditions: for protein_FGF7: DP cell medium
From the text: Next, we investigated the downstream effects of P5 on hair growth factor genes and proteins in DP cells. […] We tested whether P5 can also increase the mRNA levels and proteins of hair growth factors in DP cells: IGF‐1, VEGF, HGF, platelet‐derived growth factor alpha (PDGFA), and fibroblast growth factor (FGF) 7, which are known to induce or maintain the anagen phase of the hair cycle (Jindo et al, [1994]; Philpott et al, [1994]; Yano et al, [2001]; Jang, [2005]; Tomita et al, [2006]; Iino et al, [2007]).
Human DP cells were grown on a 100‐mm cell culture dish to 100% confluency. After washed by PBS three times, the cells were cultured with serum‐free DMEM and treated with P5. After 48 h, the medium was collected and filtered by a […]. The filtrate was then concentrated using a centrifugal concentrator (Vivaspin 6, 10‐kDa molecular weight cutoff, centrifuged 2,600 g at 4°C for 13 min, Sartorius Stedim Biotech). The signals of each protein in the concentrated media were detected and quantified, based on the enzyme‐linked immunosorbent assay (Human Cytokine Antibody Array C2000, RayBiotech).

Question: For “GLYYF [P5, GST-fused (GST-P5) in pulldown assays]”, which “Anagen induction effects / hair cycle scores vs vehicle” value (Adipor1−/− mice) is on record?
Answer: abolished

Question: What about the “p-AMPK intensity after AdipoR1 siRNA transfection, DP cells” value [1] of the same substance?
Answer: intensity was reduced

Question: And the protein_FGF7 (FGF7 protein; P5 5μM, relative to Control = 1, replicate 1)?
Answer: 1.396

Question: And the protein_FGF7 (FGF7 protein; P5 5μM, relative to Control = 1, replicate 2)?
Answer: 1.679

Question: And the protein_FGF7 (FGF7 protein; P5 5μM, relative to Control = 1, replicate 3)?
Answer: 1.269

Question: And the protein_FGF7 (FGF7 protein; P5 25μM, relative to Control = 1, replicate 1)?
Answer: 3.318

Question: And the protein_FGF7 (FGF7 protein; P5 25μM, relative to Control = 1, replicate 2)?
Answer: 3.35

Question: And the protein_FGF7 (FGF7 protein; P5 25μM, relative to Control = 1, replicate 3)?
Answer: 1.357

Question: And the “FGF7 protein expression level” value (FGF7 protein; P5-treated DP cells, 48 h medium, n = 3)?
Answer: elevated
